# Measurements from publication PMC5452050 (ACS Omega, 2017).
# Changes are numbered by the printed parent chain.
# How the values were obtained:
# FLT3 (D835V) = molecular target: T1, FLT3 (D835V) (Homo sapiens, UniProt P36888, D835V); assay: Kd determination; format: binding
# T1 sequence (P36888 27-993 D835V): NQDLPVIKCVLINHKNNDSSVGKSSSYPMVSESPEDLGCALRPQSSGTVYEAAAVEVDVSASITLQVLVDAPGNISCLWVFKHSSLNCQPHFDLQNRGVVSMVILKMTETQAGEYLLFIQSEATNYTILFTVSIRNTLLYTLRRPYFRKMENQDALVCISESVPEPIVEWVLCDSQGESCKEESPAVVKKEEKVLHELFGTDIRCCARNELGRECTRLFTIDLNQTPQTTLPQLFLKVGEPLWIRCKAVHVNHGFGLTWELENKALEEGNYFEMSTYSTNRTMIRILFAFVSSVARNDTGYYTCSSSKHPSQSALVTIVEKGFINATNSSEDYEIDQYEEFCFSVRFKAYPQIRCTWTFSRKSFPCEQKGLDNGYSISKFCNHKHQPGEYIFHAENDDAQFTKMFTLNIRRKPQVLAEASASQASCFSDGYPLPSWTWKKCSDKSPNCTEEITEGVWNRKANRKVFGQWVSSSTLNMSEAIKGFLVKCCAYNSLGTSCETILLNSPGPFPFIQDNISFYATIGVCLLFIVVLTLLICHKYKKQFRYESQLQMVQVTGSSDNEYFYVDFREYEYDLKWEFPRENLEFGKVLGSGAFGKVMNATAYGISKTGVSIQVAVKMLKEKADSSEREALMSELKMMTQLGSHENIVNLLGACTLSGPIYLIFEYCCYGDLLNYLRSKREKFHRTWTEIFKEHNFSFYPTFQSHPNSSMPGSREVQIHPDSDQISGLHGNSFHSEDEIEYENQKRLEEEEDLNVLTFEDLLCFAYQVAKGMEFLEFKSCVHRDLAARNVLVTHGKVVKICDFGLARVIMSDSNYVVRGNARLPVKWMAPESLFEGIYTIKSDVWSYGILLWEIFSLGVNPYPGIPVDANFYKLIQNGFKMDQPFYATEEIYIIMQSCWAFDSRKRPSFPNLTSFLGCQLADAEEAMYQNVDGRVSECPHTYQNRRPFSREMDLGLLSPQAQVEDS
# FLT3 (K663Q) = molecular target: T2, FLT3 (K663Q) (Homo sapiens, UniProt P36888, K663Q); assay: Kd determination; format: binding
# T2 sequence (P36888 27-993 K663Q): T1 sequence (P36888 27-993 D835V) with K637Q, V809D
# FLT3 (ITD) = molecular target: T3, FLT3 (ITD) (Homo sapiens, UniProt P36888, ITD); assay: Kd determination; format: binding
# T3 sequence (P36888 564-993): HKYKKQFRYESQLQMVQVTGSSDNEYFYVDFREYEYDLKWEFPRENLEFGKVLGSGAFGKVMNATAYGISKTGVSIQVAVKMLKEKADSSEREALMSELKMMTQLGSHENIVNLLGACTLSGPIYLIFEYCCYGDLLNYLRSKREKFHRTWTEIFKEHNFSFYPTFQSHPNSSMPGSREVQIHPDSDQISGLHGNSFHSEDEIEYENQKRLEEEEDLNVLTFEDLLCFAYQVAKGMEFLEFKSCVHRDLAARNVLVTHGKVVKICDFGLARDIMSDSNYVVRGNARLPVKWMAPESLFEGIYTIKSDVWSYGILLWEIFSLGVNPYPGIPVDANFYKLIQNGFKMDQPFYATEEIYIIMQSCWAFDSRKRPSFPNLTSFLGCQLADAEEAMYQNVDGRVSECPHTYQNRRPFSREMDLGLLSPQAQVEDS
# MOLM13^FLT3-ITD cells = assay: MOLM13 cell viability; format: cell-based; settings: Homo sapiens, MOLM-13, 72 h, read-out: MOLM13^FLT3-ITD IC50
SMILES,Kd (FLT3 (D835V)) [nM],Kd (FLT3 (K663Q)) [nM],Kd (FLT3 (ITD)) [nM],IC50 (MOLM13^FLT3-ITD cells) [nM]
"c1cncc(-c2cccc(Nc3nccc(NC4CCCCC4)n3)c2)c1 [Compound 1, N^4-Cyclohexyl-N^2-(3-(pyridin-3-yl)phenyl)pyrimidine-2,4-diamine]",7.7,110,31,620
"CC(C)Nc1ccnc(Nc2cccc(-c3cccnc3)c2)n1 [Compound 5e, N^4-Isopropyl-N^2-(3-(pyridin-3-yl)phenyl)pyrimidine-2,4-diamine]",0.8,13,1.4,136
"CC(C)Nc1ccnc(Nc2ccccc2-c2ccccc2)n1 [Compound 6a, N^2-([1,1′-Biphenyl]-2-yl)-N^4-isopropylpyrimidine-2,4-diamine]",> 10000,> 10000,> 10000,> 10000
